Reference: patent US10881642B2, “Autophagy enhancer and use thereof” (Industry-Academic Cooperation Foundation, Yonsei University, priority 2016, dated 2021)

Experiments:
Hepa1c1c7 cells = experiment: Lipid droplet clearance after PA and OA loading; format: cell-based
ob/ob mice = experiment: Metabolic profile of ob/ob mice; format: in vivo
Protocol: FIG. 6A and FIG. 6B each indicates the fasting blood sugar and the body weights respectively from ob/ob mice which were treated with vehicle control or (50 mg/kg/2 days) for 8 weeks. FIG. 6C indicates the amount of feed intake from ob/ob mice which were treated with vehicle control or for 8 weeks. FIG. 6D and FIG. 6E each indicates the IPGTT results and AUC value measured after the 8 week administration. FIG. 6F and FIG. 6G indicates the ITT results and AUC value measured after the 8 week administration. FIG. 6H indicates the fasting blood sugar after the 8 week administration. FIG. 6I indicates the concentration of insulin after the 8 week administration. FIG. 6J indicate the result of HOMA-IR measured after the 8 week administration. FIG. 6K indicates the results the Insulinogenic index measured after the 8 week administration. Error bars, S.D. *, P<0.05; **, P<0.01; ***, P<0.001. Students t-test and one-way ANOVA.
FIG. 8A is the result of Hematoxylin-Eosin stained liver section from ob/ob mice treated with MSL compound or vehicle for 8 weeks. FIG. 8B is the result of measuring the concentration of TG using free glycerol reagent containing lipase in the lipid sample extracted using a mixture of chloroform/ethanol from the liver of ob/ob mice. FIG. 8C is the result of blood chemistry profile analyzed using chemical analyzer from serum sample obtained from ob/ob mice treated with MSL compound or vehicle for 8 weeks. FIG. 8D is the result of Hematoxylin-Eosin stained white adipose tissue section from ob/ob mice treated with MSL compound or vehicle for 8 weeks. FIG. 8E is the immuno-stained result of F4/80+ cells from white adipose tissue (left) and the quantification result of adipose cell F4/80+ CLS (right) indicated as a frequency of CLS (crown-like structures) in the white adipose tissue of the mice as described above. FIG. 8F is the result of quantifying the expression of WAT gene from the mice as described above using RT-PCR. Error bars, S.D. *, P<0.05; **, P<0.01; ***, P<0.001.
FIG. 11A is the result of fasting glucose concentration of ob/ob mice administered with vehicle control or MSL-7 (50 mg/kg/2 days) for 8 weeks. FIG. 11B is the body weight monitored of the mice of FIG. 11A. FIG. 11C is the result of experiments performed at 8 weeks after the administration of IPGTT (FIG. 1 IC) and ITT (FIG. 11D). FIG. 11E is the results of measuring blood chemistry profile of the ob/ob mice administered with vehicle control or MSL-7 compound for 8 weeks using chemical analyzer. Error bars, S.D. *, P<0.05; **, P<0.01; ***, P<0.001. Students t-test and one-way ANOVA. […]
We next studied whether MSL can activate autophagic flux in vivo. When we administered MSL after pretreatment with leupeptin (Ueno, T et al. (1991) Membrane markers of endoplasmic reticulum preserved in autophagic vacuolar membranes isolated from leupeptin-administered rat liver. J Biol Chem 266, 18995-18999), LC3-I to -II conversion was increased in the liver, supporting that MSL can increase autophagic flux in vivo. We next studied whether MSL administration can improve metabolic profile associated with obesity. We treated ob/ob mice with MSL at 50 mg/kg for 8 weeks.

SMILES | lipid content in cells loaded with PA and OA (Hepa1c1c7 cells) | content of lipid droplets stained BODIPY (Hepa1c1c7 cells; PA and OA loaded, 16 h) | Food intake (ob/ob mice; 50 mg/kg, 8 weeks) | body weight (ob/ob mice; 50 mg/kg, 8 weeks) | non-fasting blood glucose level (ob/ob mice; 50 mg/kg, 8 weeks) | AUC of IPGTT and ITT (ob/ob mice; 8 weeks) | Fasting blood glucose levels (ob/ob mice; 8 weeks) | HOMA-IR index (ob/ob mice; 8 weeks) | Serum ALT/ASL levels (ob/ob mice; 8 weeks) | glucose tolerance (IPGTT) (ob/ob mice; 8 weeks) | insulin sensitivity (ITT) (ob/ob mice; 8 weeks) | number of crown-like structures (CLSs) in WAT (ob/ob mice; 8 weeks) | accumulation of lipid droplets in the liver (ob/ob mice; 8 weeks, H&E) | expression of inflammatory markers (Tnfa, I-16, II-1β, F4/80), real-time RT-PCR (ob/ob mice; WAT, 8 weeks) | liver lipid content (Oil Red O staining) (ob/ob mice; data not shown)
CSc1oc(-c2ccccc2)nc1S(=O)(=O)c1ccc(F)cc1 [MSL] | significantly reduced | significantly decreased | not affected | not affected | significantly decreased | reduced | significantly improved | slightly decreased | significantly reduced | significant improvement | significant improvement | significantly decreased | apparently reduced | significantly reduced | decreased
COc1oc(-c2ccccc2Cl)nc1S(=O)(=O)c1ccccc1 [MSL-7, 2-(2-chlorophenyl)-5-methoxy-4-(phenylsulfonyl) oxazole] |  |  |  | without significant effect on body weight | significantly improved |  |  |  |  | significantly improved | significantly improved |  |  |  | 
